Measurements from patent US20250290074A1, “TARGETED TREATMENT OF SPLICEOPATHY-INDUCED NEUROLOGICAL DISORDERS” (Auttx, LLC, priority 2022, published 2025).
Strand notation (5' to 3'): a small letter for the sugar, then the base; units joined by * are phosphorothioate-linked, units joined directly phosphodiester-linked; [ ] holds rarer units or linkages, { } end groups; capitals alone tell only the bases. e = 2'-O-(2-methoxyethyl) (MOE); [5mC] = 5-methylcytosine

Key:
[1] = system: human hnRNP L (hsHNRNP L) mRNA; experiment: 5-point dose response (DRC) of ASOs, hnRNP L mRNA by branched DNA assay in BE(2)-M17 cells; type: cell-based; conditions: 24 h; for max. upregulation [%] (MV normalized hsHNRNP L/hsGAPDH): Lipofectamine3000, highest 120 nM, four 4-fold dilutions, bDNA, negative controls set to 100%; for EC50: hsHNRNP L mRNA upregulation, XLfit
Text: Data were generated in biological quadruplicates. […] No significant decrease in hsGAPDH mRNA levels was observed.
Details and data are shown in Table 9A-9B, FIG. 24, and FIG. 25A-25E. In some cases, there was dose dependent hsHNRNP L on-target mRNA upregulation to varying degrees when cells were transfected with ASO compounds of interest.

hsHNRNP L mRNA = experiment: Time-course experiment, ASOs at 30 nM, hnRNP L mRNA by bDNA in BE(2)-M17 cells; type: cell-based, Homo sapiens; conditions: 30 nM ASO, mock controls set to 100%, incubations 24 h, 48 h, 72 h, time point not given
Procedure: Lipofectamine3000 (LF3000) was again used as the transfection agent. The transfection mixture was prepared identically on three plates. […] In this case, no outliers were removed. Data were generated in biological quadruplicates.
FIG. 26 includes a comparison of results from this study next to results from Example 7. Observing the results after 24 h incubation, similar data from the analysis in Example 7 were reproduced here.

| Substance | max. upregulation [%] (MV normalized hsHNRNP L/hsGAPDH) [1] | EC50 [1] | MV normalized hsHNRNP L/hsGAPDH (hsHNRNP L mRNA) |
| --- | --- | --- | --- |
| 5UTR-V1-1: ASO ATGGCGGCGCAGAACCCGCCTC (SEQ ID NO: 47), fully 2′-MOE, 5′-methyl C, phosphorothioate; hnRNP L 5′ UTR (antisense eA*eT*eG*eG*e[5mC]*eG*eG*e[5mC]*eG*e[5mC]*eA*eG*eA*eA*e[5mC]*e[5mC]*e[5mC]*eG*e[5mC]*e[5mC]*eT*e[5mC]; listed as Homo sapiens) | 11.4% |  |  |
| 5UTR-V1-2: ASO TCCGCGACATGGCGGCGCAGAA (SEQ ID NO: 48), fully 2′-MOE, 5′-methyl C, phosphorothioate; hnRNP L 5′ UTR (antisense eT*e[5mC]*e[5mC]*eG*e[5mC]*eG*eA*e[5mC]*eA*eT*eG*eG*e[5mC]*eG*eG*e[5mC]*eG*e[5mC]*eA*eG*eA*eA; listed as Homo sapiens) | 16.2% |  |  |
| 5UTR-V1-3: ASO GCAGCAGCCTCCGCGACATGGC (SEQ ID NO: 49), fully 2′-MOE, 5′-methyl C, phosphorothioate; hnRNP L 5′ UTR (antisense eG*e[5mC]*eA*eG*e[5mC]*eA*eG*e[5mC]*e[5mC]*eT*e[5mC]*e[5mC]*eG*e[5mC]*eG*eA*e[5mC]*eA*eT*eG*eG*e[5mC]; listed as Homo sapiens) | 22.4% |  |  |
| Skip-6A-1: ASO GTACACATCCGCTACAATTTTT (SEQ ID NO: 50), fully 2′-MOE, 5′-methyl C, phosphorothioate; upstream intron of hnRNP L exon 6A (antisense eG*eT*eA*e[5mC]*eA*e[5mC]*eA*eT*e[5mC]*e[5mC]*eG*e[5mC]*eT*eA*e[5mC]*eA*eA*eT*eT*eT*eT*eT; listed as Homo sapiens) | 9.1% | 15.2 nM | 13.0% |
| Skip-6A-2: ASO AGTCACGGTACACATCCGCTAC (SEQ ID NO: 51), fully 2′-MOE, 5′-methyl C, phosphorothioate; upstream intron (antisense eA*eG*eT*e[5mC]*eA*e[5mC]*eG*eG*eT*eA*e[5mC]*eA*e[5mC]*eA*eT*e[5mC]*e[5mC]*eG*e[5mC]*eT*eA*e[5mC]; listed as Homo sapiens) | 7.2% | 18.5 nM | 1.8% |
| Skip-6A-3: ASO TAAATACAAGTCACGGTACACA (SEQ ID NO: 52), fully 2′-MOE, 5′-methyl C, phosphorothioate; upstream intron (antisense eT*eA*eA*eA*eT*eA*e[5mC]*eA*eA*eG*eT*e[5mC]*eA*e[5mC]*eG*eG*eT*eA*e[5mC]*eA*e[5mC]*eA; listed as Homo sapiens) | 22.1% | 9.29 nM | 29.0% |
| Skip-6A-4: ASO TACAGTCATAAATACAAGTCAC (SEQ ID NO: 53), fully 2′-MOE, 5′-methyl C, phosphorothioate; upstream intron (antisense eT*eA*e[5mC]*eA*eG*eT*e[5mC]*eA*eT*eA*eA*eA*eT*eA*e[5mC]*eA*eA*eG*eT*e[5mC]*eA*e[5mC]; listed as Homo sapiens) | 24.0% | 18.9 nM | 26.9% |
| Skip-6A-5: ASO ATGGTTTTACAGTCATAAATAC (SEQ ID NO: 54), fully 2′-MOE, 5′-methyl C, phosphorothioate; upstream intron (antisense eA*eT*eG*eG*eT*eT*eT*eT*eA*e[5mC]*eA*eG*eT*e[5mC]*eA*eT*eA*eA*eA*eT*eA*e[5mC]; listed as Homo sapiens) | 41.6% | 7.25 nM | 67.3% |
| Skip-6A-6: ASO TGCATCACATGGTTTTACAGTC (SEQ ID NO: 55), fully 2′-MOE, 5′-methyl C, phosphorothioate; upstream intron (antisense eT*eG*e[5mC]*eA*eT*e[5mC]*eA*e[5mC]*eA*eT*eG*eG*eT*eT*eT*eT*eA*e[5mC]*eA*eG*eT*e[5mC]; listed as Homo sapiens) | 65.1% | 6.23 nM | 81.7% |
| Skip-6A-7: ASO GCGACCCTGCATCACATGGTTT (SEQ ID NO: 56), fully 2′-MOE, 5′-methyl C, phosphorothioate; upstream intron/exon (antisense eG*e[5mC]*eG*eA*e[5mC]*e[5mC]*e[5mC]*eT*eG*e[5mC]*eA*eT*e[5mC]*eA*e[5mC]*eA*eT*eG*eG*eT*eT*eT; listed as Homo sapiens) | 51.2% | 8.91 nM | 59.3% |
| Skip-6A-8: ASO ATACACTGCGACCCTGCATCAC (SEQ ID NO: 57), fully 2′-MOE, 5′-methyl C, phosphorothioate; upstream intron/exon (antisense eA*eT*eA*e[5mC]*eA*e[5mC]*eT*eG*e[5mC]*eG*eA*e[5mC]*e[5mC]*e[5mC]*eT*eG*e[5mC]*eA*eT*e[5mC]*eA*e[5mC]; listed as Homo sapiens) | 18.0% | 8.54 nM | 26.0% |
| Skip-6A-9: ASO TCAAACATACACTGCGACCCTG (SEQ ID NO: 58), fully 2′-MOE, 5′-methyl C, phosphorothioate; upstream intron/exon (antisense eT*e[5mC]*eA*eA*eA*e[5mC]*eA*eT*eA*e[5mC]*eA*e[5mC]*eT*eG*e[5mC]*eG*eA*e[5mC]*e[5mC]*e[5mC]*eT*eG; listed as Homo sapiens) | 40.2% | 7.15 nM | 31.3% |
| Skip-6A-10: ASO GTCCCATCAAACATACACTGCG (SEQ ID NO: 59), fully 2′-MOE, 5′-methyl C, phosphorothioate; exon 6A (antisense eG*eT*e[5mC]*e[5mC]*e[5mC]*eA*eT*e[5mC]*eA*eA*eA*e[5mC]*eA*eT*eA*e[5mC]*eA*e[5mC]*eT*eG*e[5mC]*eG; listed as Homo sapiens) | 49.2% | 5.79 nM | 42.1% |
| Skip-6A-11: ASO ATGGCGTCCCATCAAACATACA (SEQ ID NO: 60), fully 2′-MOE, 5′-methyl C, phosphorothioate; exon 6A (antisense eA*eT*eG*eG*e[5mC]*eG*eT*e[5mC]*e[5mC]*e[5mC]*eA*eT*e[5mC]*eA*eA*eA*e[5mC]*eA*eT*eA*e[5mC]*eA; listed as Homo sapiens) | 47.8% | 7.93 nM | 38.3% |
| Skip-6A-12: ASO TGAAAGATGGCGTCCCATCAAA (SEQ ID NO: 61), fully 2′-MOE, 5′-methyl C, phosphorothioate; exon 6A (antisense eT*eG*eA*eA*eA*eG*eA*eT*eG*eG*e[5mC]*eG*eT*e[5mC]*e[5mC]*e[5mC]*eA*eT*e[5mC]*eA*eA*eA; listed as Homo sapiens) | 36.6% | 16.7 nM | 14.5% |
| Skip-6A-13: ASO CAGTTCTGAAAGATGGCGTCCC (SEQ ID NO: 62), fully 2′-MOE, 5′-methyl C, phosphorothioate; exon 6A (antisense e[5mC]*eA*eG*eT*eT*e[5mC]*eT*eG*eA*eA*eA*eG*eA*eT*eG*eG*e[5mC]*eG*eT*e[5mC]*e[5mC]*e[5mC]; listed as Homo sapiens) | 53.3% | 3.97 nM | 56.0% |
| Skip-6A-14: ASO TTAGCACAGTTCTGAAAGATGG (SEQ ID NO: 63), fully 2′-MOE, 5′-methyl C, phosphorothioate; exon 6A (antisense eT*eT*eA*eG*e[5mC]*eA*e[5mC]*eA*eG*eT*eT*e[5mC]*eT*eG*eA*eA*eA*eG*eA*eT*eG*eG; listed as Homo sapiens) | 52.3% | 6.41 nM | 55.8% |
| Skip-6A-15: ASO AGTGAGTTAGCACAGTTCTGAA (SEQ ID NO: 64), fully 2′-MOE, 5′-methyl C, phosphorothioate; exon 6A (antisense eA*eG*eT*eG*eA*eG*eT*eT*eA*eG*e[5mC]*eA*e[5mC]*eA*eG*eT*eT*e[5mC]*eT*eG*eA*eA; listed as Homo sapiens) | 55.8% | 7.45 nM | 63.4% |
| Skip-6A-16: ASO CTTCAACAGTGAGTTAGCACAG (SEQ ID NO: 65), fully 2′-MOE, 5′-methyl C, phosphorothioate; exon 6A (antisense e[5mC]*eT*eT*e[5mC]*eA*eA*e[5mC]*eA*eG*eT*eG*eA*eG*eT*eT*eA*eG*e[5mC]*eA*e[5mC]*eA*eG; listed as Homo sapiens) | 61.6% | 4.93 nM | 53.2% |
| Skip-6A-17: ASO TGGACGCTTCAACAGTGAGTTA (SEQ ID NO: 66), fully 2′-MOE, 5′-methyl C, phosphorothioate; exon 6A (antisense eT*eG*eG*eA*e[5mC]*eG*e[5mC]*eT*eT*e[5mC]*eA*eA*e[5mC]*eA*eG*eT*eG*eA*eG*eT*eT*eA; listed as Homo sapiens) | 46.9% | 10.6 nM | 64.5% |
